Test results published in the supplement of paper PMC7661543.
± gives the standard deviation of the averaged measurements.

Assays:
Experiment in all cases: relative cell number vs DMSO control (72 h) (% of DMSO); higher = less growth inhibition (more cells)
Details in all cases: sgRNA knockout: sgNT
[1] = test system: MDA-MB-231
Method: (§1)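 QMAP-Seq: a pool of 5 breast cancer cell lines (ZR-75-1, SKBR3, HCC-38, MDA-MB-231, BT-20), each carrying 12 doxycycline-inducible Cas9 sgRNA perturbations (11 knockouts plus non-targeting sgNT), was treated with compounds for 72 h at four 10-fold doses (10 nM-10 uM or 1 nM-1 uM range). Barcodes were amplified and sequenced, and cell number was interpolated from 293T spike-in standard curves. The result is expressed as % of the median of DMSO wells. Two biological replicates.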

[2] = test system: SKBR3
Method: as §1

[3] = test system: HCC-38
Method: as §1

[4] = test system: ZR-75-1
Method: as §1

[5] = test system: BT-20
Method: as §1

Compound | relative cell number ([1]; 10 nM) | relative cell number ([1]; 100 nM) | relative cell number ([1]; 1000 nM) | relative cell number ([1]; 10000 nM) | relative cell number ([2]; 10 nM) | relative cell number ([2]; 100 nM) | relative cell number ([2]; 1000 nM) | relative cell number ([2]; 10000 nM) | relative cell number ([3]; 10 nM) | relative cell number ([3]; 100 nM) | relative cell number ([3]; 1000 nM) | relative cell number ([3]; 10000 nM) | relative cell number ([4]; 10 nM) | relative cell number ([4]; 100 nM) | relative cell number ([4]; 1000 nM) | relative cell number ([4]; 10000 nM) | relative cell number ([5]; 10 nM) | relative cell number ([5]; 100 nM) | relative cell number ([5]; 1000 nM) | relative cell number ([5]; 10000 nM)
CN(C)/N=N/c1[nH]cnc1C(N)=O [Dacarbazine] | 95 ± 23 | 132 ± 22 | 125 ± 38 | 69.2 ± 6.3 | 89.1 ± 21 | 91.8 ± 8.6 | 86.9 ± 3.4 | 106 ± 30 | 96.4 ± 9.5 | 85 ± 22 | 90.4 ± 13 | 96.1 ± 20 | 89.3 ± 32 | 87.7 ± 18 | 93.4 ± 33 | 94.9 ± 2.4 | 73.1 ± 11 | 96.3 ± 16 | 108 ± 13 | 88.5 ± 26
Cc1nc(Nc2ncc(C(=O)Nc3c(C)cccc3Cl)s2)cc(N2CCN(CCO)CC2)n1 [Dasatinib] | 100 ± 5.3 | 53.1 ± 6.1 | 56 ± 14 | 13.8 ± 4.3 | 53.8 ± 31 | 96.7 ± 42 | 107 ± 28 | 41.6 ± 1.3 | 96.2 ± 12 | 66.2 ± 9.8 | 65.7 ± 4.4 | 32.9 ± 2.9 | 107 ± 27 | 75.8 ± 34 | 65.4 ± 11 | 35.9 ± 0.91 | 72.1 ± 28 | 82.2 ± 4.3 | 105 ± 1.7 | 63.9 ± 7.7
Nc1ncn([C@H]2C[C@H](O)[C@@H](CO)O2)c(=O)n1 [Decitabine] | 83 ± 13 | 78.2 ± 10 | 31.2 ± 4.4 | 19.9 ± 0.36 | 104 ± 76 | 68.3 ± 37 | 55.4 ± 22 | 45.9 ± 16 | 98.2 ± 27 | 80.8 ± 14 | 49.3 ± 4.6 | 35.6 ± 3.4 | 119 ± 23 | 54.9 ± 30 | 51.2 ± 7.2 | 40.4 ± 17 | 92.6 ± 11 | 83 ± 5.8 | 75.7 ± 17 | 50.5 ± 15
COC(=O)/C=C/C(=O)OC [DimethylFumarate] | 107 ± 36 | 88.3 ± 9.9 | 91.2 ± 7.2 | 98.8 ± 16 | 112 ± 23 | 98.3 ± 3 | 86.2 ± 8.6 | 78.2 ± 16 | 104 ± 17 | 81.6 ± 2.4 | 91.4 ± 7.1 | 91.3 ± 20 | 95.9 ± 36 | 120 ± 19 | 97.7 ± 76 | 81.2 ± 38 | 105 ± 18 | 98.2 ± 2.9 | 86.1 ± 15 | 84.8 ± 1.5
COc1cccc2c1C(=O)c1c(O)c3c(c(O)c1C2=O)C[C@@](O)(C(=O)CO)C[C@@H]3O[C@H]1C[C@H](N)[C@H](O)[C@H](C)O1 [Doxorubicin] | 75.6 ± 18 | 19.3 ± 8.7 | 20.3 ± 0.47 | 7.68 ± 2.6 | 82.6 ± 29 | 34.4 ± 8.3 | 15 ± 6.8 | 6.86 ± 0.49 | 74 ± 5.4 | 38.3 ± 2.5 | 17.2 ± 3.1 | 10.8 ± 3.9 | 50 ± 9.8 | 31.7 ± 2.4 | 22.2 ± 16 | 10 ± 4.1 | 83 ± 11 | 46 ± 1.4 | 29.9 ± 5.7 | 16.4 ± 4.5
Nc1ccccc1NC(=O)c1ccc(CNC(=O)OCc2cccnc2)cc1 [Entinostat] | 90.4 ± 17 | 115 ± 39 | 39.4 ± 5.7 | 12.5 ± 5.6 | 76.3 ± 10 | 102 ± 18 | 30.3 ± 5.2 | 5.86 ± 2 | 106 ± 1.9 | 105 ± 3.4 | 64.8 ± 13 | 36.8 ± 3.2 | 75.3 ± 4.2 | 103 ± 25 | 32.6 ± 24 | 36.1 ± 11 | 105 ± 2.6 | 103 ± 22 | 50.9 ± 7.8 | 19 ± 12
